Reference: the NIST ThermoML archive (doi:10.1016/j.jct.2012.06.031)

Experiment: xn = mol fraction of the nth substance listed
Conditions: 101 kPa, Liquid; for viscosity: Concentric cylinders viscometry; for mass density: Vibrating tube method

CC(O)CO (stereo not given) [1,2-propanediol] + c1ccncc1
Conditions | mass density [kg/m3] | viscosity [mPa·s]
288.15 K, x2 = 0 | 1040.08 | 81.21
288.15 K, x2 = 0.1 | 1035.59 | 52.73
288.15 K, x2 = 0.2 | 1030.94 | 33
288.15 K, x2 = 0.2999 | 1026.33 | 20.08
288.15 K, x2 = 0.4 | 1021.39 | 12.08
288.15 K, x2 = 0.4999 | 1016.46 | 7.326
288.15 K, x2 = 0.6 | 1011.23 | 4.547
288.15 K, x2 = 0.7001 | 1005.6 | 3
288.15 K, x2 = 0.8 | 999.698 | 1.935
288.15 K, x2 = 0.9 | 994.093 | 1.391
293.15 K, x2 = 0 | 1036.46 | 58.75
293.15 K, x2 = 0.1 | 1031.78 | 38.74
293.15 K, x2 = 0.2 | 1026.95 | 24.82
293.15 K, x2 = 0.2999 | 1022.18 | 15.55
293.15 K, x2 = 0.4 | 1017.12 | 9.643
293.15 K, x2 = 0.4999 | 1012.06 | 6.036
293.15 K, x2 = 0.6 | 1006.71 | 3.857
293.15 K, x2 = 0.7001 | 1000.96 | 2.588
293.15 K, x2 = 0.8 | 994.925 | 1.736
293.15 K, x2 = 0.9 | 989.201 | 1.274
298.15 K, x2 = 0 | 1032.8 | 43.44
298.15 K, x2 = 0.1 | 1027.92 | 29.09
298.15 K, x2 = 0.2 | 1022.93 | 19.05
298.15 K, x2 = 0.2999 | 1018.01 | 12.15
298.15 K, x2 = 0.4 | 1012.81 | 7.822
298.15 K, x2 = 0.4999 | 1007.63 | 5.021
298.15 K, x2 = 0.6 | 1002.16 | 3.31
298.15 K, x2 = 0.7001 | 996.296 | 2.292
298.15 K, x2 = 0.8 | 990.138 | 1.567
298.15 K, x2 = 0.9 | 984.298 | 1.171
303.15 K, x2 = 0 | 1029.09 | 32.75
303.15 K, x2 = 0.1 | 1024.03 | 22.28
303.15 K, x2 = 0.2 | 1018.88 | 14.9
303.15 K, x2 = 0.2999 | 1013.81 | 9.81
303.15 K, x2 = 0.4 | 1008.48 | 6.396
303.15 K, x2 = 0.4999 | 1003.18 | 4.234
303.15 K, x2 = 0.6 | 997.549 | 2.866
303.15 K, x2 = 0.7001 | 991.612 | 2.008
303.15 K, x2 = 0.8 | 985.331 | 1.425
303.15 K, x2 = 0.9 | 979.376 | 1.082
308.15 K, x2 = 0 | 1025.34 | 25.16
308.15 K, x2 = 0.1 | 1020.1 | 17.37
308.15 K, x2 = 0.2 | 1014.79 | 11.85
308.15 K, x2 = 0.2999 | 1009.58 | 7.981
308.15 K, x2 = 0.4 | 1004.12 | 5.363
308.15 K, x2 = 0.4999 | 998.699 | 3.638
308.15 K, x2 = 0.6 | 992.998 | 2.514
308.15 K, x2 = 0.7001 | 986.903 | 1.795
308.15 K, x2 = 0.8 | 980.506 | 1.301
308.15 K, x2 = 0.9 | 974.443 | 1.002
313.15 K, x2 = 0 | 1021.55 | 19.65
313.15 K, x2 = 0.1 | 1016.14 | 13.76
313.15 K, x2 = 0.2 | 1010.67 | 9.567
313.15 K, x2 = 0.2999 | 1005.32 | 6.581
313.15 K, x2 = 0.4 | 999.722 | 4.523
313.15 K, x2 = 0.4999 | 994.186 | 3.137
313.15 K, x2 = 0.6 | 988.375 | 2.218
313.15 K, x2 = 0.7001 | 982.171 | 1.613
313.15 K, x2 = 0.8 | 975.66 | 1.193
313.15 K, x2 = 0.9 | 969.488 | 0.9311
318.15 K, x2 = 0 | 1017.73 | 15.58
318.15 K, x2 = 0.1 | 1012.14 | 11.07
318.15 K, x2 = 0.2 | 1006.51 | 7.833
318.15 K, x2 = 0.2999 | 1001.02 | 5.495
318.15 K, x2 = 0.4 | 995.298 | 3.855
318.15 K, x2 = 0.4999 | 989.644 | 2.729
318.15 K, x2 = 0.6 | 983.722 | 1.972
318.15 K, x2 = 0.7001 | 977.41 | 1.459
318.15 K, x2 = 0.8 | 970.792 | 1.098
318.15 K, x2 = 0.9 | 964.514 | 0.8674
323.15 K, x2 = 0 | 1013.86 | 12.55
323.15 K, x2 = 0.1 | 1008.1 | 9.082
323.15 K, x2 = 0.2 | 1002.32 | 6.551
323.15 K, x2 = 0.2999 | 996.693 | 4.678
323.15 K, x2 = 0.4 | 990.839 | 3.349
323.15 K, x2 = 0.4999 | 985.073 | 2.416
323.15 K, x2 = 0.6 | 979.044 | 1.786
323.15 K, x2 = 0.7001 | 972.625 | 1.341
323.15 K, x2 = 0.8 | 965.9 | 1.022
323.15 K, x2 = 0.9 | 959.522 | 0.8177
